The source of these data is patent US9604984B2, “5-chloro-2-difluoromethoxyphenyl pyrazolopyrimidine compounds, compositions and methods of use thereof” (Genentech, Inc., priority 2014, dated 2017).

Data set [1] deals with isolated recombinant JAK1 kinase domain (Homo sapiens (Human), UniProt P23458). The data set is described as follows: JAK1 enzyme assay (Caliper LabChip, peptide phosphorylation). Type of data set: biochemical. As to conditions: 25 μM ATP. As for the experimental part: (§1) JAK Enzyme Assays were carried out as follows:
(§2) The activity of the isolated recombinant JAK1 and JAK2 kinase domain was measured by monitoring phosphorylation of a peptide derived from JAK3 ([…] fluorescently labeled on the N-terminus with 5-carboxyfluorescein) using the Caliper LabChip® technology (Caliper Life Sciences, Hopkinton, Mass.). […] Reactions were incubated at 22° C. in 384-well polypropylene microtiter plates for 30 minutes and then stopped by addition of 25 μL of an EDTA containing solution (100 mM HEPES buffer (pH 7.2), 0.015% Brij-35, 150 mM EDTA), resulting in a final EDTA concentration of 50 mM. After termination of the kinase reaction, the proportion of phosphorylated product was determined as a fraction of total peptide substrate using the Caliper LabChip® 3000 according to the manufacturer's specifications.

Data set [2] has as its target isolated recombinant JAK2 kinase domain (Homo sapiens (Human), UniProt O60674). Put plainly: JAK2 enzyme assay (Caliper LabChip, peptide phosphorylation). Type of data set: biochemical. Conditions: 25 μM ATP. As for the experimental part:
as §1, §2

A short description of data set [3]: Clearance assay: mouse intravenous (IV) clearance. Type of data set: in vivo. Conditions: female BALB/c mice, single IV dose of 1 mg/kg. The text has this: In certain instances high systemic clearance of a drug substance may be of benefit. For example, in the treatment of pulmonary diseases it may be beneficial to have high drug concentrations in the lung, with lower concentrations in the bloodstream or peripheral organs. In such cases, it may be advantageous to administer a drug substance with high systemic clearance via the inhaled delivery route. This approach may maximize pharmacologic activity of the drug substance in the lung while minimizing the possibility of on-target toxicity elsewhere in the body. The functional groups appended to the 5-chloro-2-difluoromethoxyphenyl pyrazolopyrimidine scaffold affect systemic clearance.
Female BALB/c mice were obtained from Charles River Labs (Hollister, Calif. USA). Twelve animals were given a single IV dose of 1 mg/kg of compounds via the tail vein. A representative dose solution was prepared as follows: the compound was dissolved in a mixture of 5% dimethylsulfoxide (DMSO), 35% polyethylene glycol (PEG 400), and 60% water (v/v/v), respectively, and administered at a dosing volume of 5 mL/kg. Mice weighed approximately 20-25 g at the start of the study. […] PK data analysis was performed on mean plasma concentration-time data and PK parameters were determined by non compartmental methods using WinNonlin® Enterprise, version 5.2.1 (Pharsight Corporation; Mountain View, Calif.).

Chain of isolated recombinant JAK1 kinase domain (P23458 875-1153): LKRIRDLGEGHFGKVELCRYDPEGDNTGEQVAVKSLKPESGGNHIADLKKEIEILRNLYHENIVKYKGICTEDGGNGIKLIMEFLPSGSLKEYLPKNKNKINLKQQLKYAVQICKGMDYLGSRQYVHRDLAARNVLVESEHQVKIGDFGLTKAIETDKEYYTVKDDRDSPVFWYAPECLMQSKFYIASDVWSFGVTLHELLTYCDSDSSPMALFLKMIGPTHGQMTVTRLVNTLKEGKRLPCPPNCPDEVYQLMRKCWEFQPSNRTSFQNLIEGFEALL
Chain of isolated recombinant JAK2 kinase domain (O60674 849-1124): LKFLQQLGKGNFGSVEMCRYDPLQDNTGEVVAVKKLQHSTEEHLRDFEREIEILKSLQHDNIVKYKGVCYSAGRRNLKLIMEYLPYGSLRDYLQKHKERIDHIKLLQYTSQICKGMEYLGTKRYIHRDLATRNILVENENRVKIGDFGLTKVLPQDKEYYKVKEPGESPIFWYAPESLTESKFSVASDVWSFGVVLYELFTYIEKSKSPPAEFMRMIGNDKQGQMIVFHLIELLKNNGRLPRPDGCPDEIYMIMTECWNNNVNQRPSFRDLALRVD

For orientation: Ki means a dissociation constant, usually derived from enzyme kinetics or from competition with a known ligand. Take `CNC(=O)[C@@H]1CCCN1CC1CCN(C(=O)Cn2cc(NC(=O)c3cnn4cccnc34)c(-c3cc(Cl)ccc3OC(F)F)n2)CC1` [Example 425, N-(3-(5-chloro-2-(difluoromethoxy)phenyl)-1-(2-(4-(((S)-2-(methylcarbamoyl)pyrrolidin-1-yl)methyl)piperidin-1-yl)-2-oxoethyl)-1H-pyrazol-4-yl)pyrazolo[1,5-a]pyrimidine-3-carboxamide]: the results for the inhibition constant (Ki) in data set [1] and in data set [2] were 0.6 nM and 1.64 nM, respectively.

Take `CC(C)(O)Cn1cc(NC(=O)c2cnn3cccnc23)c(-c2cc(Cl)ccc2OC(F)F)n1` [compound i]: in data set [3], the “mouse IV clearance as % of mouse liver blood flow” value was 6 % of mouse liver blood flow.
